Source: patent US6930184B2, “Functional fluorescent dyes” (3M Innovative Properties Company, priority 2002, dated 2005)

How the values were obtained:
[1] = Solubility in acrylate monomer (fluorescence measurement); type: physicochemical
Experimental: Solubility of the dyes was determined in various acrylate monomers using standard fluorescence measurement techniques (SPEX Fluorolog-3 Spectrophotometer, SPEX Industries, Edison, N.J.).

Solubility in acetone = type: physicochemical; settings: acetone added until no undissolved dye remained
Experimental: Solubility of the dyes in acetone was determined by weighing a small amount of dye into a jar and adding small aliquots of acetone until no undissolved dye remained.

[2] = acrylate monomer BMA (butyl methacrylate)
[3] = acrylate monomer LMA (lauryl methacrylate)

With `C=CC(=O)OCCn1c(=O)c2ccc3sc4ccccc4c4ccc(c1=O)c2c34` [AD-7] the “Solubility of dyes in acrylate monomers” value [1, 2] was 301 μg dye/mL of acrylate monomer, the “Solubility of dyes in acrylate monomers” value [1, 3] was 114 μg dye/mL of acrylate monomer and the “Solubility of dye in acetone” value (Solubility in acetone) was 0.83 g acetone/mg of dye.

With `C=CC(=O)OCCOc1cc2c3ccccc3c(=O)c3ccc4c5ccccc5sc1c4c32` [AD-4] the “Solubility of dye in acetone” value (Solubility in acetone) was 11.0 g acetone/mg of dye.

In the case of `C=CC(=O)OCCn1c(=O)c2ccc3sc4ccccc4c4ccc(c1=O)c2c34` [AD-1], the “Solubility of dyes in acrylate monomers” value [1, 2] is reported as 1217 μg dye/mL of acrylate monomer, the “Solubility of dyes in acrylate monomers” value [1, 3] is reported as 816 μg dye/mL of acrylate monomer and the “Solubility of dye in acetone” value (Solubility in acetone) is reported as 0.83 g acetone/mg of dye.

For `C=CC(=O)OCCn1c(=O)c2ccc3sc4ccccc4c4ccc(c1=O)c2c34` [AD-6], the “Solubility of dyes in acrylate monomers” value [1, 2] was 559 μg dye/mL of acrylate monomer, the “Solubility of dyes in acrylate monomers” value [1, 3] was 227 μg dye/mL of acrylate monomer and the “Solubility of dye in acetone” value (Solubility in acetone) was 11.6 g acetone/mg of dye.

With `C=CC(=O)OCCOc1cc2c3ccccc3c(=O)c3ccc4c5ccccc5sc1c4c32` [AD-5] the “Solubility of dye in acetone” value (Solubility in acetone) was 0.65 g acetone/mg of dye.
